From PMC6923382, “Small molecules that inhibit TNF signalling by stabilising an asymmetric form of the trimer” (Nature Communications, 2019)
Entries after “also recorded” stand apart in the source; their conditions may differ.

Legend:
[1] = test system: TNFR1 extracellular domain and control proteins; assay: Biacore SPR binding to control surfaces; conditions: capture antibody plus TNFR1, capture antibody
Excerpt: (§1) BIA (Biomolecular Interaction Analysis) uses SPR to measure the binding of compounds to a protein immobilised on a chip surface. For this purpose a Biacore A100/4000 (GE Healthcare) was used. A CM5 sensor was immobilised via amine coupling on flow cell 1 with human Fc antibody domain (10k response units; kRU) and TNFR-Fc captured (2.5 kRU), flow cell 2 TNF (11 kRU), flow cell 3 was left blank (for non-specific binding), flow cell 4 TNFR-Fc (10 kRU), and flow cell 5 goat anti-human Fc 16 kRU). The sensor surface was then equilibrated in HBS-P (10 mM HEPES pH 7.4, 0.15 M NaCl, 0.005% Surfactant P20, BIAcore, GE Healthcare) with 5% DMSO for at least 5 h. Compounds were diluted from 100 mM stocks into DMSO matched buffer and then flowed over the immobilised flow cells at a concentration of 250 µM at the maximum flow rate of 30 μL/min. Background subtraction binding curves were analysed using the Biacore A100 BIA evaluation software version 1.1 following standard procedures.

TNF [2] = molecular target: T1, TNF (Homo sapiens, UniProt P01375); assay: Mass spectrometry monomer exchange; format: biochemical; set-up: stabilise an asymmetrical form of the soluble TNF trimer; conditions: human TNF pre-incubated with compound, mixed 1:1 with mouse TNF
Protocol: Mouse and human TNF protein were made up to a concentration of 2 mg/mL (20 mM ammonium acetate, pH 7.4) and desalted and buffer-exchanged using Zeba columns. The protein was then diluted to 20 μM in ammonium acetate buffer. An aliquot of each was mixed 1:1 and analysed at various time points. Human TNF was incubated (1:1, v/v) with compound (20 μΜ), 4% DMSO in 20 mM ammonium acetate) and mixed with mouse TNF (1:1) and tested at various time points using an Advion Nanomate (for sample introduction by nanospray) and ThermoFisher Exactive Plus EMR Mass Spectrometer. The following settings were utilised on the mass spectrometer: scan range 1000 to 8000 m/z; spray voltage 1.5 kV; capillary temperature 150 °C; S-lens RF 200; source DC offset 25 V, injection flatapole 7 V; inter flatapole 6 V; bent flatapole DC 6 V; EMR mode on. Data were processed using ThermoFisher Protein Deconvolution 3.0.
Target sequence in this assay (P01375 77-233 limits assumed): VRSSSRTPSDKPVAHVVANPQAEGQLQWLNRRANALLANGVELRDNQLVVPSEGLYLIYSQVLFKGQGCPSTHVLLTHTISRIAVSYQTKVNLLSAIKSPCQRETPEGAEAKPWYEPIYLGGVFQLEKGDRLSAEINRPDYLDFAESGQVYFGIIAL

TNF [3] = molecular target: T1, TNF; assay: Biacore binding with and without non-ionic detergent; set-up: stabilise an asymmetrical form of the soluble TNF trimer; conditions: 0.01% v/v Triton X-100 and 0.025% v/v Tween-80; Biacore T200
Protocol: Experiments to show any effect of addition of non-ionic detergent were performed on a Biacore, with human TNF on the solid phase and compounds in solution phase in the presence and absence of 0.01% v/v Triton X-100 and 0.025% v/v Tween-80.
Three Biacore T200s were treated with sodium hypochlorite to remove any traces of detergent. Each machine was equilibrated in either HBS with no detergent (control), HBS:
Tween-P80 (0.025% v/v) or HBS: Triton X-100 (0.01% v/v). Human TNF was tethered to ~ 2000 RU before equilibration in the equivalent control or detergent buffers plus 1% DMSO. […]
were fitted to a BIAevaluation T200 1:1 algorithm and the fitted data shown. […]
Target sequence in this assay (P01375 77-233 limits assumed): as above

TNF [4] = molecular target: T1, TNF; assay: Biacore SPR fragment binding to immobilised TNF; set-up: Human TNF (CID2043, UniProt P01375 residues 77–233); 6XHis-Smt3 (N, cleaved yes); host or cells: E. coli TOP10; conditions: SPR fragment screen; concentration-dependent response
Excerpt: as §1
Target sequence in this assay (P01375 77-233): as the sequence (P01375 77-233 limits assumed) above

TNF [5] = molecular target: T1, TNF; assay: Biacore kinetics of binding; set-up: Human TNF (CID2043, UniProt P01375 residues 77–233); 6XHis-Smt3 (N, cleaved yes); host or cells: E. coli TOP10; conditions: SPR, multicycle, Biacore T100
Protocol: Surface plasmon resonance using a Biacore T100/T200 was used to measure the association rate constant (ka), the dissociation rate constant (kd) and the affinity (KD) of compounds. TNF (VCID 2043 Beryllium) was immobilised to approximately 5 kRU as described above and equilibrated for at least 5 h in HBS P + buffer with 5% DMSO. UCB-6876 was serially diluted from 187.5 µM, flowing over the immobilised TNF at 50 µL/min for 3 min before allowing full dissociation under flow for at least 6 min. […] […] The compounds were allowed to dissociate for 2 h under flow.
Target sequence in this assay (P01375 77-233): as the sequence (P01375 77-233 limits assumed) above

Structure (SMILES): Cc1ccc(C)c(Cn2c(CO)nc3ccccc32)c1 [UCB-6876]
- binding to TNFR1 and control proteins (selectivity) [1]: selectivity over the TNFR1 extracellular domain and control proteins; also recorded: not to control proteins
- exchange of mouse and human TNF monomers (TNF [2]): blocks the exchange of mouse and human monomers
- effect of non-ionic detergents on binding to human TNF (TNF [3]): does not alter the binding
- binding to immobilised TNF (TNF [4]): bound to TNF; also recorded: specifically binds to immobilised TNF
- Kd (TNF [5]; read-out: KD (kd/ka)): 22 µM
- kon (TNF [5]; read-out: association rate constant ka): 923 M⁻¹ s⁻¹
- koff (TNF [5]; read-out: dissociation rate constant kd): 0.02 s⁻¹
